Source: patent US20230024096A1, “BIFUNCTIONAL COMPOUNDS FOR THE TREATMENT OF CANCER” (Hoffmann-La Roche Inc., priority 2019, published 2023)

Molecular target: T1, SMARCA2 (Homo sapiens, UniProt P51531)
T1 construct: endogenous in cells; host or cells: HT1080 (CRISPR HiBiT knock-in clone, generated in house)
Assay: SMARCA2 HiBiT degradation assay (cellular)
Type: cell-based
Conditions: table head names A549; for DC50: 6 h incubation, HiBiT-tagged SMARCA2, luminescence read-out, read-out: HiBit A549 SMARCA2 IP (nM) 6 h; for Emax: A549, 6 h incubation, Emax = amount of residual protein remaining in the cell following compound treatment

T1 sequence (P51531 whole entry): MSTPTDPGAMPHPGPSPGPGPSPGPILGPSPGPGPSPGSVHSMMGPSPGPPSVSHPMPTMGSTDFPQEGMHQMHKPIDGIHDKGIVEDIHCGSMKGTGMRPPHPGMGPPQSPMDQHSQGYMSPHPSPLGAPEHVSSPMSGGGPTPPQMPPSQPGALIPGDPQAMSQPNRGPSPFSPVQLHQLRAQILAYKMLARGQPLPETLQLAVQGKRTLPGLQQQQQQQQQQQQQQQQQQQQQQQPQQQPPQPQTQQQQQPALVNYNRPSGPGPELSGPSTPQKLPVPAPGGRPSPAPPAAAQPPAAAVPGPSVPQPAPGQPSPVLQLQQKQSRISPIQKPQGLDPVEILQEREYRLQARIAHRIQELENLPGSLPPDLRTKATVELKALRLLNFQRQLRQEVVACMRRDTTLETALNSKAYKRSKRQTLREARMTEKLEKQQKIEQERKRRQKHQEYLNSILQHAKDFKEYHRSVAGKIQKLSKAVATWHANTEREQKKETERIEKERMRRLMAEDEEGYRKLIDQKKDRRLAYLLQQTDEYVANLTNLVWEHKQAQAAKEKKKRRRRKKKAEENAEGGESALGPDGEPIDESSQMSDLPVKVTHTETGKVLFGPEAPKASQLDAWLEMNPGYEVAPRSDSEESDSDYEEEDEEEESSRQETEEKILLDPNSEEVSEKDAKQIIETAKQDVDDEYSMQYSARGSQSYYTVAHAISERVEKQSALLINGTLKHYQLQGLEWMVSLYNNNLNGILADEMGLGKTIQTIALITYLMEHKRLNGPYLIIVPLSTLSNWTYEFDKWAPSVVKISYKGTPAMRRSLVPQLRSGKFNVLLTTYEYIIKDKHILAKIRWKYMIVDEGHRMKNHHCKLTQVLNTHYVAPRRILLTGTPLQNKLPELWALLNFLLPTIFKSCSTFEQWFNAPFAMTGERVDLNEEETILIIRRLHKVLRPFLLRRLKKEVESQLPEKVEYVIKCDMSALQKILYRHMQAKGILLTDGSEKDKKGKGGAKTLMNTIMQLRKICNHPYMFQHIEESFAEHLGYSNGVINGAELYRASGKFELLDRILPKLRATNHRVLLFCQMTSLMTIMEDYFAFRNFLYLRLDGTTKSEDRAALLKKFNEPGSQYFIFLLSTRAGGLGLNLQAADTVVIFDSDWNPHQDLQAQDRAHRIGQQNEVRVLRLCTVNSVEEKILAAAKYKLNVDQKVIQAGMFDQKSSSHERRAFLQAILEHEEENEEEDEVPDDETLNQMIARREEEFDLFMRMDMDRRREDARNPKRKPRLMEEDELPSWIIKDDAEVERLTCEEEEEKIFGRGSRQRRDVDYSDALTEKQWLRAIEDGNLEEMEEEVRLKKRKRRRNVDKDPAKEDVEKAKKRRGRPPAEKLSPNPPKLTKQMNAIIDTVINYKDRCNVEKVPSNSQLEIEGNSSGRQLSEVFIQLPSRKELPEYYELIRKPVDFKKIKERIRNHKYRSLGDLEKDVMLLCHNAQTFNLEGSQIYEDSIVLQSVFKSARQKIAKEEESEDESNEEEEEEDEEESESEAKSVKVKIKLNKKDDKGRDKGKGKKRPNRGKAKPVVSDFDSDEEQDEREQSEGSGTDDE

Compound `Nc1nnc(-c2cc(F)ccc2O)cc1N1CCC(CNC(=O)CCCN2CCC(c3ccc(OC4CCC(=O)NC4=O)cc3)CC2)(c2ccccc2)CC1` (stereo not shown) [Example 183, N-[[1-[3-amino-6-(5-fluoro-2-hydroxy-phenyl)pyridazin-4-yl]-4-phenyl-4-piperidyl]methyl]-4-[4-[4-[(2,6-dioxo-3-piperidyl)oxy]phenyl]-1-piperidyl]butanamide] has a DC50 of 99 nM and an Emax of 37%.

Work on `Nc1nnc(-c2ccccc2O)cc1N1CCC(NC(=O)CC2CCN(C(=O)C3CCN(c4ccc5c(c4)C(=O)N(C4CCC(=O)NC4=O)C5=O)CC3)CC2)(c2ccccc2)CC1` (stereo not shown) [Example 184, N-[1-[3-amino-6-(2-hydroxyphenyl)pyridazin-4-yl]-4-phenyl-4-piperidyl]-2-[1-[1-[2-(2,6-dioxo-3-piperidyl)-1,3-dioxo-isoindolin-5-yl]piperidine-4-carbonyl]-4-piperidyl]acetamide] yielded a DC50 of 494 nM and an Emax of 65%.

`Nc1nnc(-c2ccccc2O)cc1N1CCC(NC(=O)CC2CCN(C(=O)CCCN3CCC(c4ccc(NC5CCC(=O)NC5=O)cc4)CC3)CC2)(c2ccccc2)CC1` (stereo not shown) [Example 185, N-[1-[3-amino-6-(2-hydroxyphenyl)pyridazin-4-yl]-4-phenyl-4-piperidyl]-2-[1-[4-[4-[4-[(2,6-dioxo-3-piperidyl)amino]phenyl]-1-piperidyl]butanoyl]-4-piperidyl]acetamide] was tested, and the DC50 was 241 nM and the Emax was 62%.

`Nc1nnc(-c2ccccc2O)cc1N1CCC(C(=O)N2CC3(CCN(C(=O)C4CCN(c5ccc6c(c5)C(=O)N(C5CCC(=O)NC5=O)C6=O)CC4)C3)C2)(c2ccccc2)CC1` (stereo not shown) [Example 186, 5-(4-(2-(1-(3-amino-6-(2-hydroxyphenyl)pyridazin-4-yl)-4-phenylpiperidine-4-carbonyl)-2,6-diazaspiro[3.4]octane-6-carbonyl)piperidin-1-yl)-2-(2,6-dioxopiperidin-3-yl)isoindoline-1,3-dione] was tested, and the DC50 was 148 nM and the Emax was 42%.

`Nc1nnc(-c2ccccc2O)cc1N1CCC(C(=O)N2CC3(CCN(C(=O)CC4CCN(c5ccc6c(c5)C(=O)N(C5CCC(=O)NC5=O)C6=O)CC4)C3)C2)(c2ccccc2)CC1` (stereo not shown) [Example 187, 5-(4-(2-(2-(1-(3-amino-6-(2-hydroxyphenyl)pyridazin-4-yl)-4-phenylpiperidine-4-carbonyl)-2,6-diazaspiro[3.4]octan-6-yl)-2-oxoethyl)piperidin-1-yl)-2-(2,6-dioxopiperidin-3-yl)isoindoline-1,3-dione] gave a DC50 of 579 nM and an Emax of 53%.

`Nc1nnc(-c2ccccc2O)cc1N1CCC(C(=O)N2CC3(CCN(C(=O)CCC4CCN(c5ccc6c(c5)C(=O)N(C5CCC(=O)NC5=O)C6=O)CC4)C3)C2)(c2ccccc2)CC1` (stereo not shown) [Example 188, 5-(4-(3-(2-(1-(3-amino-6-(2-hydroxyphenyl)pyridazin-4-yl)-4-phenylpiperidine-4-carbonyl)-2,6-diazaspiro[3.4]octan-6-yl)-3-oxopropyl)piperidin-1-yl)-2-(2,6-dioxopiperidin-3-yl)isoindoline-1,3-dione] showed a DC50 of 193 nM and an Emax of 50%.

`Nc1nnc(-c2ccccc2O)cc1N1CCC(C(=O)N2CC3(CCN(C(=O)COc4ccc5c(c4)C(=O)N(C4CCC(=O)NC4=O)C5=O)C3)C2)(c2ccccc2)CC1` (stereo not shown) [Example 189, 5-(2-(2-(1-(3-amino-6-(2-hydroxyphenyl)pyridazin-4-yl)-4-phenylpiperidine-4-carbonyl)-2,6-diazaspiro[3.4]octan-6-yl)-2-oxoethoxy)-2-(2,6-dioxopiperidin-3-yl)isoindoline-1,3-dione] was tested, and the DC50 was 1370 nM and the Emax was 62%.

Work on `Nc1nnc(-c2ccccc2O)cc1N1CCC(C(=O)N2CC3(CCN(CC4CCN(c5ccc6c(c5)C(=O)N(C5CCC(=O)NC5=O)C6=O)CC4)C3)C2)(c2ccccc2)CC1` (stereo not shown) [Example 190, 5-(4-((2-(1-(3-amino-6-(2-hydroxyphenyl)pyridazin-4-yl)-4-phenylpiperidine-4-carbonyl)-2,6-diazaspiro[3.4]octan-6-yl)methyl)piperidin-1-yl)-2-(2,6-dioxopiperidin-3-yl)isoindoline-1,3-dione] yielded a DC50 of 22 nM and an Emax of 29%.
